Data: ChEMBL document CHEMBL1201862, “PubChem BioAssay data set” (2004)
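How tested: cells in 96-well plates exposed to compound for 48 hours at five concentrations. GI50: concentration for 50% inhibition of growth.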 Active and inactive are the calls of the source. No stated cut-off is given here; in the data, active = GI50 up to about 1.1 µM and inactive = higher.

Columns and labels:
Assay in all cases: NCI tumour cell line growth inhibition, 48 h
MDA-MB-231 = tested on: MDA-MB-231
ACHN = tested on: ACHN
NCI-H226 = tested on: NCI-H226
U-251 = tested on: U-251
HOP-62 = tested on: HOP-62
SK-MEL-2 = tested on: SK-MEL-2
UACC-62 = tested on: UACC-62
OVCAR-5 = tested on: OVCAR-5
CAKI-1 = tested on: CAKI-1
MOLT-4 = tested on: MOLT-4
DU-145 = tested on: DU-145
K562 = tested on: K562
OVCAR-3 = tested on: OVCAR-3
SK-MEL-5 = tested on: SK-MEL-5
RPMI-8226 = tested on: RPMI-8226
NCI-H522 = tested on: NCI-H522
SR = tested on: SR
TK-10 = tested on: TK-10
COLO 205 = tested on: COLO 205
HL-60 = tested on: HL-60
SN12C = tested on: SN12C
MCF7 = tested on: MCF7
SF-539 = tested on: SF-539
IGROV-1 = tested on: IGROV-1
RXF 393 = tested on: RXF 393
SK-MEL-28 = tested on: SK-MEL-28
UACC-257 = tested on: UACC-257
BT-549 = tested on: BT-549
EKVX = tested on: EKVX
MDA-N = tested on: MDA-N
CCRF-CEM = tested on: CCRF-CEM
UO-31 = tested on: UO-31
HT-29 = tested on: HT-29
MDA-MB-435 = tested on: MDA-MB-435
HCT-116 = tested on: HCT-116
786-0 = tested on: 786-0
PC-3 = tested on: PC-3
HCT-15 = tested on: HCT-15
SF-295 = tested on: SF-295
KM12 = tested on: KM12
SK-OV-3 = tested on: SK-OV-3
LOX IMVI = tested on: LOX IMVI
A549 = tested on: A549
HOP-92 = tested on: HOP-92
OVCAR-4 = tested on: OVCAR-4
Malme-3M = tested on: Malme-3M
HCC 2998 = tested on: HCC 2998
SF-268 = tested on: SF-268
SW-620 = tested on: SW-620
NCI-H23 = tested on: NCI-H23
M14 = tested on: M14
SNB-19 = tested on: SNB-19
NCI-H460 = tested on: NCI-H460
Hs-578T = tested on: Hs-578T
T47D = tested on: T47D
OVCAR-8 = tested on: OVCAR-8
SNB-75 = tested on: SNB-75
A498 = tested on: A498
NCI/ADR-RES = tested on: NCI/ADR-RES

For CSC(SC)=C1C(=O)NN=C1C, the GI50 (MDA-MB-231) was > 100 µM (inactive), the GI50 (ACHN) was > 100 µM (inactive) and the GI50 (NCI-H226) was > 100 µM (inactive). For the same compound, the GI50 (U-251) was > 100 µM (inactive), the GI50 (HOP-62) was > 100 µM (inactive) and the GI50 (SK-MEL-2) was > 100 µM (inactive). The GI50 (UACC-62) was > 100 µM (inactive), the GI50 (OVCAR-5) was > 100 µM (inactive) and the GI50 (CAKI-1) was 89.3 µM (inactive). The GI50 (MOLT-4) was > 100 µM (inactive), the GI50 (DU-145) was > 100 µM (inactive) and the GI50 (K562) was > 100 µM (inactive). For the same compound, the GI50 (OVCAR-3) was > 100 µM (inactive), the GI50 (SK-MEL-5) was > 100 µM (inactive) and the GI50 (RPMI-8226) was > 100 µM (inactive). The GI50 (NCI-H522) was 47 µM (inactive), the GI50 (SR) was > 100 µM (inactive) and the GI50 (TK-10) was > 100 µM (inactive). For the same compound, the GI50 (COLO 205) was > 100 µM (inactive), the GI50 (HL-60) was > 100 µM (inactive) and the GI50 (SN12C) was > 100 µM (inactive). For the same compound, the GI50 (MCF7) was > 100 µM (inactive), the GI50 (SF-539) was > 100 µM (inactive) and the GI50 (IGROV-1) was > 100 µM (inactive). For the same compound, the GI50 (RXF 393) was > 100 µM (inactive), the GI50 (SK-MEL-28) was > 100 µM (inactive) and the GI50 (UACC-257) was > 100 µM (inactive). The GI50 (BT-549) was > 100 µM (inactive), the GI50 (EKVX) was > 100 µM (inactive) and the GI50 (MDA-N) was > 100 µM (inactive). For the same compound, the GI50 (CCRF-CEM) was > 100 µM (inactive), the GI50 (UO-31) was > 100 µM (inactive) and the GI50 (HT-29) was > 100 µM (inactive). For the same compound, the GI50 (MDA-MB-435) was > 100 µM (inactive), the GI50 (HCT-116) was > 100 µM (inactive) and the GI50 (786-0) was > 100 µM (inactive). The GI50 (PC-3) was > 100 µM (inactive), the GI50 (HCT-15) was > 100 µM and the GI50 (SF-295) was > 100 µM (inactive). The GI50 (KM12) was > 100 µM (inactive), the GI50 (SK-OV-3) was > 100 µM (inactive) and the GI50 (LOX IMVI) was > 100 µM (inactive). The GI50 (A549) was > 100 µM (inactive), the GI50 (HOP-92) was 35.1 µM (inactive) and the GI50 (OVCAR-4) was > 100 µM (inactive). The GI50 (Malme-3M) was > 100 µM (inactive), the GI50 (HCC 2998) was > 100 µM (inactive) and the GI50 (SF-268) was > 100 µM (inactive). The GI50 (SW-620) was > 100 µM (inactive), the GI50 (NCI-H23) was > 100 µM (inactive) and the GI50 (M14) was > 100 µM (inactive). The GI50 (SNB-19) was > 100 µM (inactive), the GI50 (NCI-H460) was > 100 µM (inactive) and the GI50 (Hs-578T) was > 100 µM (inactive). For the same compound, the GI50 (T47D) was > 100 µM (inactive).

In the case of O=C1c2[nH]c3ccccc3c2CCN2CCCCC12 (stereo unspecified), the GI50 (MDA-MB-231) was 19.2 µM (inactive), the GI50 (ACHN) was 21.9 µM (inactive) and the GI50 (NCI-H226) was 27.8 µM (inactive). The GI50 (U-251) was 18.8 µM (inactive), the GI50 (HOP-62) was 29.3 µM (inactive) and the GI50 (SK-MEL-2) was 18.5 µM (inactive). For the same compound, the GI50 (UACC-62) was 18.8 µM (inactive), the GI50 (OVCAR-5) was 21.6 µM (inactive) and the GI50 (CAKI-1) was 38.2 µM (inactive). For the same compound, the GI50 (MOLT-4) was 17.3 µM (inactive), the GI50 (DU-145) was 36.4 µM (inactive) and the GI50 (K562) was 23.2 µM (inactive). For the same compound, the GI50 (OVCAR-3) was 19.7 µM (inactive), the GI50 (RPMI-8226) was 17.7 µM (inactive) and the GI50 (NCI-H522) was 20.3 µM (inactive). For the same compound, the GI50 (TK-10) was 27 µM (inactive), the GI50 (COLO 205) was 18.7 µM (inactive) and the GI50 (HL-60) was 1.8 µM (inactive). For the same compound, the GI50 (SN12C) was 35.6 µM (inactive), the GI50 (MCF7) was 32.1 µM (inactive) and the GI50 (SF-539) was 21.1 µM (inactive). For the same compound, the GI50 (IGROV-1) was 20.2 µM (inactive), the GI50 (OVCAR-8) was 25.2 µM (inactive) and the GI50 (SNB-75) was 28.5 µM (inactive). The GI50 (RXF 393) was 24.9 µM (inactive), the GI50 (SK-MEL-28) was 37.4 µM (inactive) and the GI50 (UACC-257) was 17.7 µM (inactive). The GI50 (BT-549) was 27.6 µM (inactive), the GI50 (EKVX) was 23.4 µM (inactive) and the GI50 (A498) was 29.6 µM (inactive). For the same compound, the GI50 (MDA-N) was 19.1 µM (inactive), the GI50 (CCRF-CEM) was 22.6 µM (inactive) and the GI50 (NCI/ADR-RES) was 22.8 µM (inactive). The GI50 (HT-29) was 34.1 µM (inactive), the GI50 (MDA-MB-435) was 16.7 µM (inactive) and the GI50 (HCT-116) was 23.6 µM (inactive). The GI50 (786-0) was 24 µM (inactive), the GI50 (PC-3) was 18.8 µM (inactive) and the GI50 (HCT-15) was 31.9 µM. The GI50 (SF-295) was 25.1 µM (inactive), the GI50 (KM12) was 17.7 µM (inactive) and the GI50 (SK-OV-3) was 31.1 µM (inactive). For the same compound, the GI50 (LOX IMVI) was 22.3 µM (inactive), the GI50 (A549) was 24.9 µM (inactive) and the GI50 (HOP-92) was 18.5 µM (inactive). The GI50 (OVCAR-4) was 27.5 µM (inactive), the GI50 (Malme-3M) was 25.6 µM (inactive) and the GI50 (HCC 2998) was 17.2 µM (inactive). For the same compound, the GI50 (SF-268) was 33.8 µM (inactive), the GI50 (SW-620) was 26.1 µM (inactive) and the GI50 (NCI-H23) was 21.8 µM (inactive). The GI50 (M14) was 17.9 µM (inactive), the GI50 (SNB-19) was 24.9 µM (inactive) and the GI50 (NCI-H460) was 26.6 µM (inactive). For the same compound, the GI50 (Hs-578T) was 28 µM (inactive) and the GI50 (T47D) was 25.7 µM (inactive).

In the case of COc1ccc(/C=C2\C[C@H]3[C@@H]4CC=C5C[C@@H](OC(C)=O)CC[C@]5(C)[C@H]4CC[C@]3(C)C2=O)cc1OC, the GI50 (ACHN) was 49.5 µM (inactive), the GI50 (NCI-H226) was 48.2 µM (inactive) and the GI50 (HOP-62) was 0.815 µM (active). For the same compound, the GI50 (SK-MEL-2) was 31.1 µM (inactive), the GI50 (UACC-62) was > 100 µM (inactive) and the GI50 (OVCAR-5) was 41 µM (inactive). The GI50 (CAKI-1) was 22.5 µM (inactive), the GI50 (MOLT-4) was 5.9 µM (inactive) and the GI50 (DU-145) was > 100 µM (inactive). The GI50 (K562) was 7.96 µM (inactive), the GI50 (OVCAR-3) was > 100 µM (inactive) and the GI50 (SK-MEL-5) was 10.6 µM (inactive). For the same compound, the GI50 (RPMI-8226) was 11.3 µM (inactive), the GI50 (NCI-H522) was 23.5 µM (inactive) and the GI50 (SR) was 24.7 µM (inactive). For the same compound, the GI50 (COLO 205) was 24.3 µM (inactive), the GI50 (HL-60) was 16.7 µM (inactive) and the GI50 (SN12C) was 42.3 µM (inactive). For the same compound, the GI50 (MCF7) was 38.4 µM (inactive), the GI50 (SF-539) was > 100 µM (inactive) and the GI50 (IGROV-1) was > 100 µM (inactive). The GI50 (OVCAR-8) was 40.6 µM (inactive), the GI50 (SNB-75) was > 100 µM (inactive) and the GI50 (RXF 393) was 69.5 µM (inactive). For the same compound, the GI50 (SK-MEL-28) was > 100 µM (inactive), the GI50 (UACC-257) was 19.8 µM (inactive) and the GI50 (BT-549) was 63.1 µM (inactive). The GI50 (EKVX) was 15.7 µM (inactive), the GI50 (A498) was 33 µM (inactive) and the GI50 (MDA-N) was 39.9 µM (inactive). The GI50 (CCRF-CEM) was 37 µM (inactive), the GI50 (UO-31) was 12.2 µM (inactive) and the GI50 (NCI/ADR-RES) was 80.9 µM (inactive). For the same compound, the GI50 (HT-29) was 41.2 µM (inactive), the GI50 (MDA-MB-435) was 48.4 µM (inactive) and the GI50 (HCT-116) was 38.8 µM (inactive). For the same compound, the GI50 (786-0) was 38.7 µM (inactive), the GI50 (PC-3) was 55.1 µM (inactive) and the GI50 (HCT-15) was 68.9 µM. For the same compound, the GI50 (SF-295) was 0.47 µM (active), the GI50 (KM12) was 0.971 µM (active) and the GI50 (LOX IMVI) was 42.9 µM (inactive). For the same compound, the GI50 (A549) was 28.5 µM (inactive), the GI50 (HOP-92) was 31.7 µM (inactive) and the GI50 (OVCAR-4) was 63.4 µM (inactive). The GI50 (Malme-3M) was 34.7 µM (inactive), the GI50 (HCC 2998) was 58.3 µM (inactive) and the GI50 (SF-268) was 86.7 µM (inactive). For the same compound, the GI50 (SW-620) was > 100 µM (inactive), the GI50 (NCI-H23) was 70 µM (inactive) and the GI50 (M14) was 66.4 µM (inactive). The GI50 (SNB-19) was 54.8 µM (inactive), the GI50 (NCI-H460) was 33.9 µM (inactive) and the GI50 (Hs-578T) was 58.6 µM (inactive). For the same compound, the GI50 (T47D) was 35.7 µM (inactive).
